In ChEMBL document CHEMBL1129756, “Conformationally restricted TRH analogs: a probe for the pyroglutamate region” (J Med Chem, 1996):

Legend:
[1] = biological target: T1, Thyrotropin-releasing hormone receptor (Mus musculus, UniProt P21761); assay: Binding affinity against TRH-R receptor in AtT-20 mouse pituitary tumor cells
T1 sequence (P21761 whole entry): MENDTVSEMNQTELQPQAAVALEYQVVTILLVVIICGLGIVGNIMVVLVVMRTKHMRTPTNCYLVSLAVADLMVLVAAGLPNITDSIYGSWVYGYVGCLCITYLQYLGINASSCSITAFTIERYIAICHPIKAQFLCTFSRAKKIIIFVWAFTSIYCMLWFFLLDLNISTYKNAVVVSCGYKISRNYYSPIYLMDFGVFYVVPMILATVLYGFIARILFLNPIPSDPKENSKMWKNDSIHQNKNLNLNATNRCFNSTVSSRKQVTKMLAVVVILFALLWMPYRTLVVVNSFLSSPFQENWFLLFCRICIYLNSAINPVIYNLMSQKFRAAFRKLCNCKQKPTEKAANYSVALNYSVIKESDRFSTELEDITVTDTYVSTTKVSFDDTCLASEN

[2] = biological target: T1, Thyrotropin-releasing hormone receptor; assay: Effective concentration required to activate TRH-R receptor in AtT-20 mouse pituitary tumor cells

Row | SMILES | Ki [1] [nM] | EC50 [2] [nM]
1 | Cn1cnc(C[C@H](NC(=O)[C@@H]2CCC(=O)N2)C(=O)N2CCC[C@H]2C(N)=O)c1 | 1.2 | –
2 | NC(=O)[C@@H]1CCCN1C(=O)[C@H](Cc1ccccc1)N1CC[C@]2(CCC(=O)N2)C1=O | 4400 | 290
3 | NC(=O)[C@@H]1CCCN1C(=O)[C@H](Cc1cnc[nH]1)NC(=O)[C@@H]1CCC(=O)N1 [PROTIRELIN] | – | 0.68
